What was measured:
Details in all cases: human; call rule not given here
[1] = system: Hepatotoxicity; test: FDA HLAED, liver enzyme composite activity
[2] = system: Hepatotoxicity; test: FDA HLAED, alkaline phosphatase increase
[3] = system: Hepatotoxicity; test: FDA HLAED, serum glutamic oxaloacetic transaminase (SGOT) increase
[4] = system: Hepatotoxicity; test: FDA HLAED, serum glutamic pyruvic transaminase (SGPT) increase
[5] = system: Hepatotoxicity; test: FDA HLAED, lactate dehydrogenase (LDH) increase
[6] = system: Hepatotoxicity; test: FDA HLAED, gamma-glutamyl transferase (GGT) increase

Compound | Composite Activity - Active [1] | Composite Activity - Marginal [1] | Composite Activity - Score [1] | Alkaline Phosphatase Increase - Activity Score [2] | Alkaline Phosphatase Increase - Number of Reports [2] | SGOT Increase - Activity Score [3] | SGOT Increase - Number of Reports [3] | SGPT Increase - Activity Score [4] | SGPT Increase - Number of Reports [4] | LDH Increase - Activity Score [5] | LDH Increase - Number of Reports [5] | GGT Increase - Activity Score [6] | GGT Increase - Number of Reports [6] | Alkaline Phosphatase Increase - Index Value [2] | SGOT Increase - Index Value [3] | SGPT Increase - Index Value [4] | LDH Increase - Index Value [5] | GGT Increase - Index Value [6]
CC(=O)O[C@@]12CO[C@@H]1C[C@H](O)[C@@]1(C)C(=O)[C@H](O)C3=C(C)[C@@H](OC(=O)[C@H](O)[C@@H](NC(=O)OC(C)(C)C)c4ccccc4)C[C@@](O)([C@@H](OC(=O)c4ccccc4)[C@H]21)C3(C)C.O.O.O [DOCETAXEL] | 0 | 0 | Inactive | Inactive | < 4 | Inactive | < 4 | Inactive | < 4 | Inactive | < 4 | Inactive | < 4 | – | – | – | – | –
C[C@H]1C[C@H]2[C@@H]3CCC4=CC(=O)C=C[C@]4(C)[C@@]3(F)[C@@H](O)C[C@]2(C)[C@@]1(O)C(=O)CCl [CLOBETASOL] | 0 | 0 | Inactive | Inactive | < 4 | Inactive | < 4 | Inactive | < 4 | Inactive | < 4 | Inactive | < 4 | 0 | 0 | 0 | 0 | 0
CC1(C)S[C@@H]2[C@H](NC(=O)C3(N)CCCCC3)C(=O)N2[C@H]1C(=O)O [CYCLACILLIN] | 0 | 0 | Inactive | Inactive | < 4 | Inactive | < 4 | Inactive | < 4 | Inactive | < 4 | Inactive | < 4 | 0 | 0 | 0 | 0 | 0
COc1cc(N)c(Cl)cc1C(=O)NC1CCN(CCCOc2ccc(F)cc2)CC1OC (stereo unspecified) [CISAPRIDE] | 0 | 0 | Inactive | Inactive | >= 4 | Inactive | >= 4 | Inactive | >= 4 | Inactive | < 4 | Inactive | < 4 | 0.2 | 0.3 | 0.4 | 0.1 | 0.2
CC[C@@]1(O)C(=O)OCc2c1cc1n(c2=O)Cc2cc3c(CN(C)C)c(O)ccc3nc2-1 [TOPOTECAN] | 0 | 0 | Inactive | Inactive | < 4 | Inactive | < 4 | Inactive | < 4 | Inactive | < 4 | Inactive | < 4 | 0 | 0 | 0 | 11.6 | 11.6
CC1=C(CC(=O)O)c2cc(F)ccc2/C1=C\c1ccc([S+](C)[O-])cc1 (stereo unspecified) | 0 | 0 | Inactive | Inactive | < 4 | Inactive | < 4 | Inactive | < 4 | Inactive | < 4 | Inactive | < 4 | 0 | 0 | 0 | 0 | 0
CO/N=C(/C(=O)N[C@@H]1C(=O)N2C(C(=O)OC(C)OC(=O)C(C)(C)OC)=C(COC(N)=O)CS[C@H]12)c1ccco1 (stereo partly specified) [CEFUROXIME PIVOXETIL] | 0 | 0 | Inactive | Inactive | < 4 | Inactive | < 4 | Inactive | < 4 | Inactive | < 4 | Inactive | < 4 | 0 | 0 | 0 | 0 | 0
CC(C)(C#N)c1cc(Cn2cncn2)cc(C(C)(C)C#N)c1 [ANASTROZOLE] | 2 | 0 | Active | Inactive | < 4 | Active | >= 4 | Active | >= 4 | Inactive | < 4 | Inactive | < 4 | 6.4 | 16.1 | 12.8 | 6.4 | 0
C[C@@H]1CN(c2c(F)c(N)c3c(=O)c(C(=O)O)cn(C4CC4)c3c2F)C[C@H](C)N1 [SPARFLOXACIN] | 0 | 0 | Inactive | Inactive | < 4 | Inactive | < 4 | Inactive | < 4 | Inactive | < 4 | Inactive | < 4 | 0 | 0 | 0 | 0 | 0
CN(C)CCCN1c2ccccc2CCc2ccc(Cl)cc21 [CLOMIPRAMINE] | 0 | 0 | Inactive | Inactive | < 4 | Inactive | < 4 | Inactive | < 4 | Inactive | < 4 | Inactive | < 4 | 0 | 0 | 0 | 0 | 0
CC(N)C12CC3CC(CC(C3)C1)C2 (stereo unspecified) [RIMANTADINE] | 0 | 0 | Inactive | Inactive | < 4 | Inactive | < 4 | Inactive | < 4 | Inactive | < 4 | Inactive | < 4 | 1.7 | 3.3 | 1.7 | 0 | 0
Nc1ccn([C@@H]2CS[C@H](CO)O2)c(=O)n1 [LAMIVUDINE] | 2 | 0 | Active | Inactive | >= 4 | Active | >= 4 | Active | >= 4 | Inactive | >= 4 | Inactive | >= 4 | 2.1 | 8.7 | 9 | 2.1 | 1.7

Reference: ChEMBL document CHEMBL1697781, “Assessment of the health effects of chemicals in humans: II. Construction of an adverse effects database for QSAR modeling” (Curr Drug Discov Technol, 2004)
